The values that follow come from US20130102562A1, “INHIBITION OF CATHEPSIN K ACTIVITY AND THE TREATMENT AND PREVENTION OF DISEASE” (SYLVAN PHARMACEUTICALS PTY LTD., priority 2006, published 2013).

Test [1] has as its target T1, Cathepsin K (Homo sapiens, UniProt P43235).
T1 sequence (P43235 115-329): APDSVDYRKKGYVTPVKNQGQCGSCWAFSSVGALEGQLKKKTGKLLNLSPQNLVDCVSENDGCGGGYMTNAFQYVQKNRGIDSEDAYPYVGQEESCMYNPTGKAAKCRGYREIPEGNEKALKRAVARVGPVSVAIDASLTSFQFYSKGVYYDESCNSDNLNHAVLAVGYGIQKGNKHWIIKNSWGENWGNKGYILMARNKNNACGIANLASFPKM
Description: Cathepsin K bone collagen digests (release of bone collagen, hydroxyproline). It counts as biochemical. The conditions noted are these: overall conclusion; Cathepsin K mediated release of bone collagen (FIG. 1). On the procedure:
Fresh ovine bone was milled in a stainless steel mortar and pestle in liquid nitrogen. The resultant bone powder was defatted, decalcified and freeze-dried before storage at 4° C.
(ii) Cathepsin K Bone Collagen Digests • 2 mg of insoluble bone collagen powder was digested in 100 mM sodium acetate pH 5.5 containing 2.5 mM dithiothreitol and 2.5 mM EDTA with […] Cathepsin K and increasing doses of PPS. • Digestions were incubated at 37° C. for 24 hours and terminated by the addition of 2 μM E84. Residue and supernatant were hydrolysed separately and the hydroxyproline content measured.

In test [2] the test system is RAW 264.7 cells. Nature of the test: Multinucleated (OCL) cell count in RAW 264.7 cell cultures ± RANKL. It counts as cell-based, Murine. The procedure:
(iii) RAW 264.7 Cells • Murine macrophage RAW 264.7 cells respond to Receptor Activator NFKB Ligand (RANKL) stimulation to generate bone pit resorptive osteoclasts. • RAW cells were pre-cultured for several days in High-Glucose Dulbecco's Modified Eagles Medium (HG-DMEM) with 10% Fetal Calf Serum […] (0-50 μg/mL). • Cells were incubated at 37° C., 5% CO2 for 4 days. • The number of multinucleated cells present in each was counted by two observers at day 2, 3 and 4. The cells were then harvested for RNA extraction and subsequent RT-PCR.
(iv) H&E Staining • Identical cultures were prepared in petri dishes containing pre-labelled slides and incubated for 4 days, after which slides were carefully rinsed in PBS, immersed in ice-cold acetone and air-dried before freezing. • The slides were then stained with H&E before multinucleated osteoclasts were photographed and counted.

For test [3], the system named is Cathepsin K gene expression. Nature of the test: Cathepsin K gene expression by RAW 264.7 cells ± RANKL (RT-PCR). In kind it is cell-based, Murine. The procedure:
(§1) (iii) RAW 264.7 Cells • Murine macrophage RAW 264.7 cells respond to Receptor Activator NFKB Ligand (RANKL) stimulation to generate bone pit resorptive osteoclasts. • RAW cells were pre-cultured for several days in High-Glucose Dulbecco's Modified Eagles Medium (HG-DMEM) with 10% Fetal Calf Serum (FCS). • Cells were seeded at 250,000 cells/mL in HG-DMEM/10% FCS with/without […] RANKL and increasing doses of PPS (0-50 μg/mL). • Cells were incubated at 37° C., 5% CO2 for 4 days. • The number of multinucleated cells present in each was counted by two observers at day 2, 3 and 4. The cells were then harvested for RNA extraction and subsequent RT-PCR.

In test [4] the test system is MMP-9 gene expression. Nature of the test: MMP9 gene expression by RAW 264.7 cells ± RANKL (RT-PCR). It counts as cell-based, Murine. The procedure: as §1

On to “calcium xylopyranose polysulfate [CaXPS]”, for which the “Cathepsin K activity” value in test [1] is given as “down regulation”. For the same molecule, the “RANKL-induced multinucleated OCL cell formation” value in test [2] (day 4, 0.5 μg/mL CaXPS vs absence of CaXPS, p<0.05 (FIG. 4B)) is reported as “significantly more”. The “RANKL-induced formation of true multinucleated (>4 nuclei/cell) OCL cells” value in test [2] (day 4, 10 μg/mL CaXPS (FIG. 4B)) is “inhibited”; in test [2] (day 4, 50 μg/mL CaXPS (FIG. 4B)), “inhibited”. The “number of cells containing 2-3 nuclei as a percentage total cells” value in test [2] (day 4, 50 μg/mL CaXPS, in the presence of RANKL, p<0.05 (FIG. 4A)) is on record as “significantly more 2-3 nucleated cells”; in test [2] (day 4, − vs + RANKL, at most concentrations of CaXPS (FIG. 4A)), “still significantly increased”. The “Cathepsin K gene expression” value in test [3] (day 4, increasing concentrations of CaXPS in the absence of RANKL (FIG. 5A)) was “no marked effect”. Besides, the “Cathepsin K expression” value in test [3] (day 4, presence of RANKL, lowest dose of CaXPS, p<0.05 (FIG. 5A)) was “significant increase”. For the same molecule, in test [4] (day 4, increasing concentrations of CaXPS in the absence of RANKL (FIG. 5B)), the MMP-9 gene expression result is “no marked effect”. The MMP-9 expression entry in test [4] (day 4, presence of RANKL, 5 μg/mL CaXPS, p<0.05 (FIG. 5B)) is listed as “decrease”.

B1: RANKL: Receptor Activator NFKB Ligand; stimulates RAW 264.7 cells to generate bone pit resorptive osteoclasts (protein, UniProt O35235 139-316, looked up)
Tumor necrosis factor ligand …: FSGAPAMMEGSWLDVAQRGKPEAQPFAHLTINAASIPSGSHKVTLSSWYHDRGWAKISNMTLSNGKLRVNQDGFYYLYANICFRHHETSGSVPTDYLQLMVYVVKTSIKIPSSHNLMKGGSTKNWSGNSEFHFYSINVGGFFKLRAGEEISIQVSNPSLLDPDQDATYFGAFKVQDID
For B1, the “development of multinucleated cells” value in test [2] (RANKL 20 ng/mL added to RAW cells, by day 3, p<0.05 (FIGS. 2 and 3)) is reported as “significant development of multinucleated cells”. In addition, the “expression of Cathepsin K by RAW cells” value in test [3] (RANKL alone vs no RANKL (FIG. 5A)) is on record as “increased”. The “expression of MMP-9 by RAW cells” value in test [4] (RANKL alone vs no RANKL (FIG. 5B)) is recorded as “increased”.
